Measurements taken from publication PMC6656724 (Communications Biology, 2019).
Read-outs that look alike come from different tables or passages of the source.

How the values were obtained:
[1] = biological target: T1, Pseudomonas fluorescens KMO (PfKMO) (Pseudomonas fluorescens, UniProt Q84HF5, C252S/C461S); assay: biochemical
T1 construct: made in house; host or cells: E. coli BL21 (DE3)
Source text: (§1) A combination of ligand- and structural-based virtual screening approaches (see supporting information for details) was used to identify an initial library of >1000 compounds that may be suitable as potential KMO inhibitors. These compounds were screened for inhibition of Pseudomonas fluorescens KMO (PfKMO) and Homo sapiens KMO (HsKMO) using high-throughput assays by monitoring the time-dependent oxidation of NADPH at 340 nm[23].
(§2) Small-molecule compounds were supplied by Biofocus (Charles River Laboratories International Inc., MA, USA), which were identified in silico as potential inhibitors (further details are described in the Supplementary Methods). Initial inhibition assays were performed against Pseudomonas fluorescens KMO (PfKMO) and Homo sapiens KMO (HsKMO) by monitoring the time-dependent absorbance change of NADPH at 340 nm. Purified KMO protein (200 nM) was incubated in 100 µL reaction buffer (20 mM potassium phosphate pH 8.0, 7 mM 2-mercaptoethanol) containing 100 μM NADPH, 100 μM L-Kyn and 20 μM potential inhibitors in 96-well plates. […] The inhibitors identified in the initial screens were validated and re-assayed individually in a 1 cm path-length quartz micro cuvette. […] Suppliers for target inhibitor compounds are listed in Supplementary Table 11.
(§3) Supplementary Figure 1. Examples of inhibition data used to generate IC50 values for selected KMO inhibitors. Fixed concentration of L -KYN (200 µM) and NADPH (100µM) were added into reaction buffer (HsKMO: 20mM potassium phosphate pH 8.0, 7 mM 2-mercaptoethanol; PfKMO: 20 mM HEPES, 10mM sodium acetate, pH 7.5, 2mM DTT). The reaction was initiated by the addition of KMO enzyme (HsKMO: 0.5µM; PfKMO: 0.1 µM). KMO activity was measured in the presence of a range of inhibitor concentrations. […]
(§4) 3.5 Steady-state enzymatic assays.
(§5) Initial screening assays and determination of IC50 values for each potential inhibitor compound were carried out using either 0.1 µM PfKMO or 0.5 µM HsKMO at fixed […]
(§6) (HsKMO: 20 mM potassium phosphate pH 8.0, 7 mM 2-mercaptoethanol; PfKMO:
(§7) 20 mM HEPES, 10 mM sodium acetate, pH 7.5, 2 mM DTT). KMO activity was measured in the presence of a range of inhibitor concentrations by monitoring the […]
consumption of NADPH at 340 nm upon addition of enzyme via a Cary 50 UV-Vis spectrophotometer (Agilent Technologies). Rates were determined from linear regression fits to the initial linear portion of the curves. All measurements were performed in triplicate. The IC50 values for inhibitors were obtained by plotting the percentage inhibition versus the inhibitor concentration and fitting to the Morrison equation16 (equation 1) using Origin 9.0 Software (OriginLab, Northampton, MA). […]

Homo sapiens KMO (HsKMO) = biological target: T2, Homo sapiens KMO (HsKMO) (Homo sapiens, UniProt O15229); assay: KMO inhibition assay, NADPH oxidation at 340 nm (HsKMO); assay type: biochemical
T2 construct: GST; made in house
T2 sequence (O15229 whole entry): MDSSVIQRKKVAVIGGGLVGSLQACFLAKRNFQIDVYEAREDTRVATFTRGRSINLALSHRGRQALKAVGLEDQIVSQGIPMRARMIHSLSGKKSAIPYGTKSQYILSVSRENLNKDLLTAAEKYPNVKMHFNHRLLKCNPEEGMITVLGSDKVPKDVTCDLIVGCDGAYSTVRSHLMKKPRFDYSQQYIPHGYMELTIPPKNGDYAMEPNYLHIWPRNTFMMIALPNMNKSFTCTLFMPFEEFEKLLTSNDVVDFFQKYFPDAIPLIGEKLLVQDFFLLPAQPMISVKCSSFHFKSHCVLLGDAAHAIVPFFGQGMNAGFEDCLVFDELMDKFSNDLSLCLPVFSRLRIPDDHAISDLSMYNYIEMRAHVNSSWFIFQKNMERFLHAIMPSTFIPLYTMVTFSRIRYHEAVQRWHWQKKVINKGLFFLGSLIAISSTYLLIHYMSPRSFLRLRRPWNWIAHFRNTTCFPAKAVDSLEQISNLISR
Source text: as §1, §2
Supplementary Figure 1. Examples of inhibition data used to generate IC50 values for selected KMO inhibitors.
as §3, with “NADPH” for “Supplementary Figure 1. Examples of inhibition data used to generate IC50 values for selected KMO inhibitors. Fixed concentration of L -KYN (200 µM) and NADPH”
as §4, §5, §6, §7
consumption of NADPH at 340 nm upon addition of enzyme via a Cary 50 UV-Vis spectrophotometer (Agilent Technologies). Rates were determined from linear regression fits to the initial linear portion of the curves. All measurements were performed in triplicate. The IC50 values for inhibitors were obtained by plotting the percentage inhibition versus the inhibitor concentration and fitting to the Morrison equation16 (equation 1) using Origin 9.0 Software (OriginLab, Northampton, MA).
E + I + K!"" − E + I + K!"" ! − 4[E][I] where v0 is the enzyme activity without inhibitor, vi is the enzyme activity with ligand

MDR1 (P-glycoprotein) = assay: in vitro; assay type: in vitro ADME, canine; conditions: dog
Method: (§8) internal standard at each timepoint. […]
(§9) including an analytical internal standard.
(§10) Apparent permeability (Papp) values were determined from the relationship: […]
(§11) Where V is the volume of each Transwell compartment (apical 125 µL, basolateral 600 µL), and concentrations are the relative MS responses for compound (normalized to internal standard) in the donor chamber before incubation and acceptor chamber at the end of the incubation. Area = area of cells exposed for drug transfer (0.33 cm 2).
(§12) Efflux ratios (Papp B>A / Papp A>B) were calculated for each compound from the […]
(§13) MDR1-MDCK cell line has been engineered to overexpress the efflux transporter, MDR1 (P-glycoprotein), and a finding of good permeability B>A, but poor […]
(§14) order to confirm the involvement of MDR1 in any efflux seen, an “ef fective efflux ratio” (EER) was calculated by comparing compound efflux ratios (ER) in the two cell types, i.e. EER = ER (MDR1-MDCK)/ ER (wild-type MDCK). This ratio illustrates the effect of the over-expressed MDR1 normalised for the background movement of compound through the wild-type cells.
(§15) Lucifer Yellow (LY) was added to the apical buffer in all wells to assess viability of the cell layer. As LY cannot freely permeate lipophilic barriers, a high degree of LY […]
(§16) validity of other wells on the plate.
(§17) Compound recovery from the wells was determined from MS responses (normalized to internal standard) in donor and acceptor chambers at the end of incubation compared to response in the donor chamber pre-incubation.

in vitro = in vitro ADME, canine; conditions: dog; for Papp A→B at 1 h, 10 µM / Papp B→A at 1 h, 10 µM / recovery at 1 h, 10 µM: MDCK
Method: as §8, §9, §10, §11, §12, §13, §14, §15, §16, §17

[2] = MDCK-MDR1, pH 7.4, MDR1 MDCK, read-out: Papp A>B Mean
[3] = MDCK-MDR1, pH 7.4, MDR1 MDCK, read-out: Papp B>A Mean
[4] = MDCK-MDR1, pH 7.4, MDR1 MDCK, read-out: Recovery A>B Mean
[5] = MDCK-MDR1, pH 7.4, MDR1 MDCK, read-out: Recovery A>B n=1
[6] = MDCK-MDR1, pH 7.4, MDR1 MDCK, read-out: Recovery A>B n=2
[7] = MDCK-MDR1, pH 7.4, MDR1 MDCK, read-out: Recovery B>A Mean
[8] = MDCK-MDR1, pH 7.4, MDR1 MDCK, read-out: Recovery B>A n=1
[9] = MDCK-MDR1, pH 7.4, MDR1 MDCK, read-out: Recovery B>A n=2
[10] = MDCK-MDR1, pH 7.4, Papp A>B n=1, MDR1 MDCK
[11] = MDCK-MDR1, pH 7.4, Papp A>B n=2, MDR1 MDCK
[12] = MDCK-MDR1, pH 7.4, Papp B>A n=1, MDR1 MDCK
[13] = MDCK-MDR1, pH 7.4, Papp B>A n=2, MDR1 MDCK
[14] = pH 7.4, Papp A>B n=1, wild type MDCK
[15] = pH 7.4, Papp A>B n=2, wild type MDCK
[16] = pH 7.4, Papp B>A n=1, wild type MDCK
[17] = pH 7.4, Papp B>A n=2, wild type MDCK
[18] = pH 7.4, wild type MDCK, read-out: Papp A>B Mean
[19] = pH 7.4, wild type MDCK, read-out: Papp B>A Mean
[20] = pH 7.4, wild type MDCK, read-out: Recovery A>B Mean
[21] = pH 7.4, wild type MDCK, read-out: Recovery A>B n=1
[22] = pH 7.4, wild type MDCK, read-out: Recovery A>B n=2
[23] = pH 7.4, wild type MDCK, read-out: Recovery B>A Mean
[24] = pH 7.4, wild type MDCK, read-out: Recovery B>A n=1
[25] = pH 7.4, wild type MDCK, read-out: Recovery B>A n=2

T1 sequence (Q84HF5 whole entry C252S/C461S): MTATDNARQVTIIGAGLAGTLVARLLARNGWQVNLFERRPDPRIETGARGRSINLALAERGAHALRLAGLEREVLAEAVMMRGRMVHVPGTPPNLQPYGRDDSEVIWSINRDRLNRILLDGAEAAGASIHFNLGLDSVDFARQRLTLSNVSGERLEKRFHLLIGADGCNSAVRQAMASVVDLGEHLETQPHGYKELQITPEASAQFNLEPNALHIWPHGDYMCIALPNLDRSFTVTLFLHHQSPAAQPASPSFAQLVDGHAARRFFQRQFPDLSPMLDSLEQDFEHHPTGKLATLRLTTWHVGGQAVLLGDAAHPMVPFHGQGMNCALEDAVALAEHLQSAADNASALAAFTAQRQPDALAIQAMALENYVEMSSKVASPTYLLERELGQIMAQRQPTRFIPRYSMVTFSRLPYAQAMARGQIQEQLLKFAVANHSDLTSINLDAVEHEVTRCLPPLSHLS

Structure (SMILES): Cc1cc2c(c(C)c1Cl)N(CC(=O)N(C)C)C(=O)CO2 [1e]
- IC50 [1]: > 300 µM
- IC50 (Homo sapiens KMO (HsKMO)): ~300 µM

Structure (SMILES): CNC(=O)CN1C(=O)COc2cc(C)c(Cl)c(C)c21 [1f]
- IC50 [1]: > 300 µM
- IC50 (Homo sapiens KMO (HsKMO)): > 300 µM

Structure (SMILES): Cc1cc2c(c(C)c1Cl)N(CC(N)=O)C(=O)CO2 [1g]
- IC50 [1]: > 300 µM
- IC50 (Homo sapiens KMO (HsKMO)): > 300 µM

Structure (SMILES): CC(C)NCC(O)COc1cccc2ccccc12 (centres unmarked) [Propranolol, reference compound]
- Papp A→B at 1 h, 10 µM (MDR1 (P-glycoprotein); [2]): 52.5 ×10⁻⁶ cm/s
- Papp B→A at 1 h, 10 µM (MDR1 (P-glycoprotein); [3]): 38 ×10⁻⁶ cm/s
- recovery at 1 h, 10 µM (MDR1 (P-glycoprotein); [4]): 92.5%
- recovery at 1 h, 10 µM (MDR1 (P-glycoprotein); [5]): 97%
- recovery at 1 h, 10 µM (MDR1 (P-glycoprotein); [6]): 88%
- recovery at 1 h, 10 µM (MDR1 (P-glycoprotein); [7]): 80.5%
- recovery at 1 h, 10 µM (MDR1 (P-glycoprotein); [8]): 83%
- recovery at 1 h, 10 µM (MDR1 (P-glycoprotein); [9]): 78%
- Papp A→B at 1 h, 10 µM (MDR1 (P-glycoprotein); [10]): 53 ×10⁻⁶ cm/s
- Papp A→B at 1 h, 10 µM (MDR1 (P-glycoprotein); [11]): 52 ×10⁻⁶ cm/s
- Papp B→A at 1 h, 10 µM (MDR1 (P-glycoprotein); [12]): 39 ×10⁻⁶ cm/s
- Papp B→A at 1 h, 10 µM (MDR1 (P-glycoprotein); [13]): 37 ×10⁻⁶ cm/s
- efflux ratio at 1 h, 10 µM (MDR1 (P-glycoprotein); pH 7.4, MDR1 MDCK, Papp B>A / Papp A>B): 0.72
- Papp A→B at 1 h, 10 µM (in vitro; [14]): 52 ×10⁻⁶ cm/s
- Papp A→B at 1 h, 10 µM (in vitro; [15]): 57 ×10⁻⁶ cm/s
- Papp B→A at 1 h, 10 µM (in vitro; [16]): 30 ×10⁻⁶ cm/s
- Papp B→A at 1 h, 10 µM (in vitro; [17]): 31 ×10⁻⁶ cm/s
- Papp A→B at 1 h, 10 µM (in vitro; [18]): 54.5 ×10⁻⁶ cm/s
- Papp B→A at 1 h, 10 µM (in vitro; [19]): 30.5 ×10⁻⁶ cm/s
- recovery at 1 h, 10 µM (in vitro; [20]): 91%
- recovery at 1 h, 10 µM (in vitro; [21]): 88%
- recovery at 1 h, 10 µM (in vitro; [22]): 94%
- recovery at 1 h, 10 µM (in vitro; [23]): 80.5%
- recovery at 1 h, 10 µM (in vitro; [24]): 77%
- recovery at 1 h, 10 µM (in vitro; [25]): 84%
- efflux ratio at 1 h, 10 µM (in vitro; pH 7.4, wild type MDCK, Papp B>A / Papp A>B): 0.56

Structure (SMILES): O=C(O)[C@@H]1C[C@H]1C(=O)c1ccc(Cl)c(Cl)c1 [UPF648, reference compound]
- IC50 [1]: 0.12 ± 0.03 µM
- IC50 (Homo sapiens KMO (HsKMO)): 0.06 µM

Structure (SMILES): CC[C@]1(O)C[C@@H]2CN(CCc3c([nH]c4ccccc34)[C@@](C(=O)OC)(c3cc4c(cc3OC)N(C)[C@H]3[C@@](O)(C(=O)OC)[C@H](OC(C)=O)[C@]5(CC)C=CCN6CC[C@]43[C@@H]65)C2)C1 [Vinblastine, reference compound]
- Papp A→B at 1 h, 10 µM (MDR1 (P-glycoprotein); [2]): < 1 ×10⁻⁶ cm/s
- Papp B→A at 1 h, 10 µM (MDR1 (P-glycoprotein); [3]): 22 ×10⁻⁶ cm/s
- recovery at 1 h, 10 µM (MDR1 (P-glycoprotein); [4]): 55%
- recovery at 1 h, 10 µM (MDR1 (P-glycoprotein); [5]): 55%
- recovery at 1 h, 10 µM (MDR1 (P-glycoprotein); [6]): 55%
- recovery at 1 h, 10 µM (MDR1 (P-glycoprotein); [7]): 67.5%
- recovery at 1 h, 10 µM (MDR1 (P-glycoprotein); [8]): 71%
- recovery at 1 h, 10 µM (MDR1 (P-glycoprotein); [9]): 64%
- Papp A→B at 1 h, 10 µM (MDR1 (P-glycoprotein); [10]): < 1 ×10⁻⁶ cm/s
- Papp A→B at 1 h, 10 µM (MDR1 (P-glycoprotein); [11]): < 1 ×10⁻⁶ cm/s
- Papp B→A at 1 h, 10 µM (MDR1 (P-glycoprotein); [12]): 24 ×10⁻⁶ cm/s
- Papp B→A at 1 h, 10 µM (MDR1 (P-glycoprotein); [13]): 20 ×10⁻⁶ cm/s
- Papp A→B at 1 h, 10 µM (in vitro; [14]): < 1 ×10⁻⁶ cm/s
- Papp A→B at 1 h, 10 µM (in vitro; [15]): < 1 ×10⁻⁶ cm/s
- Papp B→A at 1 h, 10 µM (in vitro; [16]): 3.6 ×10⁻⁶ cm/s
- Papp B→A at 1 h, 10 µM (in vitro; [17]): 3.9 ×10⁻⁶ cm/s
- Papp A→B at 1 h, 10 µM (in vitro; [18]): < 1 ×10⁻⁶ cm/s
- Papp B→A at 1 h, 10 µM (in vitro; [19]): 3.75 ×10⁻⁶ cm/s
- recovery at 1 h, 10 µM (in vitro; [20]): 46.5%
- recovery at 1 h, 10 µM (in vitro; [21]): 48%
- recovery at 1 h, 10 µM (in vitro; [22]): 45%
- recovery at 1 h, 10 µM (in vitro; [23]): 72.5%
- recovery at 1 h, 10 µM (in vitro; [24]): 71%
- recovery at 1 h, 10 µM (in vitro; [25]): 74%

Structure (SMILES): O=C(O)CCc1ccc(-c2cccs2)n1-c1ccc(Br)cc1 [compound 2, 3-[1-(4-bromophenyl)-5-(2-thienyl)-1H-pyrrol-2-yl] propanoic acid]
- IC50 [1]: 130 ± 18.7 µM
- IC50 (Homo sapiens KMO (HsKMO)): 1.5 µM

Structure (SMILES): Cc1ccc2c(c1)cc(C(=O)N[C@@H](C(=O)O)c1ccccc1)n2C [compound 7, (R)-2-(1,5-dimethyl-1H-indole-2-carboxamido)-2-phenylacetic acid]
- IC50 [1]: 101 ± 9.1 µM
- IC50 (Homo sapiens KMO (HsKMO)): 21.3 µM
